Test results from PMC9775310, “Anticancer, Antimicrobial, and Antioxidant Activities of Organodiselenide-Tethered Methyl Anthranilates” (Biomolecules, 2022).
Like-named read-outs stand apart in the source and are kept apart here.

How the values were obtained:
[1] = test system: HepG2 cells; assay: MTT assay, antiproliferative activity, HepG2 liver carcinoma cells; format: cell-based; details: Homo sapiens, read-out: HepG2 IC50
Protocol: (§1) The anticancer activity of the OSe was performed using the MTT assay against liver (HepG2) and breast (MCF-7) carcinoma cells, as well as normal WI-38 cells following the reported method. Experimental details can be found in the Supplementary Materials Section S1.
(§2) Accordingly, the anticancer properties of the OSe hybrids were assessed against two cancer cell lines, i.e., HepG2 and MCF-7 cells. Furthermore, their corresponding cytotoxicity was also estimated against the immortalized lung WI-38 fibroblasts employing the MTT assay. The Adriamycin cancer drug was used as the positive control. The concentration inhibition, 50%, needed to kill half of the cells (IC50) was estimated from (concentration-response plots) and tabulated in Table 1.
(§3) 1.1. The biological assays
(§4) 1.1.1. The anticancer activity
(§5) The breast adenocarcinoma (MCF-7), Hepatocellular carcinoma (HEPG-2), and normal fibroblast (WI-38) cells were obtained from ATCC via Holding company for biological products and vaccines (VACSERA), Cairo, Egypt. The reagents […] medium, MTT, DMSO, and fetal bovine serum was obtained from Sigma Aldrich. Dulbecco’s modified Eagle’s medium was used as the culture medium for the cells, and the cytotoxicity was evaluated using the reported MTT assay. Doxorubicin was used as the positive reference, and the IC50 values were obtained from the corresponding dose-response curve.
(§6) This colorimetric assay is based on converting the yellow tetrazolium bromide (MTT) to a purple formazan derivative by mitochondrial succinate dehydrogenase in viable cells. Cell lines were cultured in […] medium with 10% fetal bovine serum. Antibiotics added were 100 units/ml penicillin and 100µg/ml streptomycin at 37 C in a 5% Co2 incubator. The cell lines were seeded in a 96-well plate at a density of 1.0x10^4 cells/well. at 37 C for 48 h under 5% […]
Finally, dimethyl sulfoxide (DMSO) in the volume of 100 µl is added to each well to dissolve the purple formazan formed. The colorimetric assay is measured and recorded at an absorbance of 570 nm using a plate reader (EXL 800, USA). […]

[2] = test system: MCF-7 cells; assay: MTT assay, antiproliferative activity, MCF-7 breast carcinoma cells; format: cell-based; details: Homo sapiens, MCF7, 24 h, read-out: MCF7 IC50
Protocol: as §1
as §2, with “control.” for “control. The concentration inhibition, 50%, needed to kill half of the cells (IC50) was estimated from (concentration-response plots) and tabulated in Table 1.”
as §3, §4, §5, §6
(§7) Finally, dimethyl sulfoxide (DMSO) in the volume of 100 µl is added to each well to dissolve the purple formazan formed. […]

[3] = test system: WI-38 cells; assay: MTT assay, cytotoxicity against normal WI-38 fibroblasts; format: cell-based; details: Homo sapiens, WI-38, 24 h, read-out: WI38 IC50
Protocol: as §1
as §2, with “control.” for “control. The concentration inhibition, 50%, needed to kill half of the cells (IC50) was estimated from (concentration-response plots) and tabulated in Table 1.”
as §3, §4, §5, §6, §7

[4] = test system: Staphylococcus aureus; assay: Agar well diffusion assay, S. aureus; format: cell-based; details: ratio of inhibition zone to that of positive control
Protocol: (§8) According to the reported method, the OSe agents’ antimicrobial properties were estimated against Staphylococcus aureus (S. aureus), Escherichia coli (E. coli), and Candida albicans (C. albicans) microbial strains using the agar well diffusion assay. In addition, the MICs (in […]) were also recorded via the microdilution method following the reported procedure. Experimental details can be found in the Supplementary Materials Section S1 [16, 18].
(§9) The promising anticancer activities manifested by the OSe compounds encourage us to further evaluate their respective antimicrobial activity against a panel of gram-negative bacteria (e.g., E. coli) and the gram-positive bacteria (e.g., S. aureus) as well as a fungal strain (C. albicans) using the method of agar diffusion. The clotrimazole antifungal and the ampicillin antibacterial drugs were used as the positive controls. […]
(§10) 1.1.2. The antimicrobial activity
(§11) The antimicrobial activities of the OSe compounds were evaluated against C. albicans yeast as well as E. coli gram-negative and S. aureus gram-positive bacteria employing the agar well diffusion assay [ 4 ] .
(§12) Briefly, a concentration of 1 mM was prepared for each compound by dissolving in DMSO.
(§13) Paper discs of standard size […] were sterilized in an autoclave and soaked in 9 µL of the test compounds, and placed in the Petri dishes, which in turn contain a nutrient media (agar 9 g, peptone 5 g, and beef extract 3 g) seeded with the dedicated strain. Incubation lasted for 13 h at 36 0C. Experiments were replicated three times and the antifungal clotrimazole and antibiotic ampicillin were used as standards. The % activity index for the complex was determined and depicted in table 2. […]

[5] = test system: Candida albicans; assay: Agar well diffusion assay, C. albicans; format: cell-based; details: ratio of inhibition zone to that of positive control
Protocol: as §8, §9, §10, §11, §12, §13

[6] = test system: Staphylococcus aureus; assay: Agar well diffusion assay, S. aureus; format: cell-based; details: read-out: S. aureus ZID
[7] = test system: Candida albicans; assay: Agar well diffusion assay, C. albicans; format: cell-based; details: read-out: C. Albicans ZID
[8] = test system: Escherichia coli; assay: Agar well diffusion assay, E. coli; format: cell-based; details: ratio of inhibition zone to that of positive control
Protocol: as §8, §9, §10, §11, §12, §13

[9] = test system: Escherichia coli; assay: Agar well diffusion assay, E. coli; format: cell-based; details: read-out: E. coli ZID
[10] = DPPH radical scavenging bioassay; details: for DPPH radical scavenging activity: 200 µL, 1 mM in MeOH, DPPH 400 µL, 30 min, 517 nm
Text: (§14) The DPPH and ABTS in vitro bioassays were used to assess the OSe antioxidant activities following the reported method. Experimental details can be found in the Supplementary Materials Section S1.
(§15) The redox modulation activities of the OSe compounds were extensively explored over the last decade owing to their chemopreventive and antioxidant potency. The latter is usually investigated by the ABTS and DPPH in vitro tests employing vitamin C as the positive control. The OSe compound’s magnitude estimated the antioxidant potential to decolorize the distinctive colors of the DPPH^. and ABTS^. radicals at 517 nm and 734 nm, respectively (Figure 2).
(§16) Figure 2 The OSe compounds redox activities assessment using the ABTS and DPPH experiments. All tests are mean ± SD. ABTS experiment: absorbance was followed at 734 nm for OSe compounds (50 µL, 1 mM in MeOH) and ABTS solution (60 µL). DPPH experiment: Absorbance was monitored after 30 min at 517 nm for OSe compounds (200 µL, 1 mM in MeOH) and DPPH (400 µL). […]
1.1.3. The antioxidant activity
1.1.3.1. The DPPH bioassay
The hydrogen atom or electron donation ability of the corresponding compounds was measured by estimating the bleaching of the purple color of a methanolic solution of DPPH [5]. This spectrophotometric assay uses stable DPPH. reagent. The sample was prepared by adding […] of the OSe compounds (1 mM in methanol) to […] DPPH in methanol. After 30 min of incubation in the dark, the absorbance was read against a blank at […]. Ascorbic acid (vitamin C) and ebselen were used as standard antioxidants (positive control). A blank sample was run without DPPH. A negative control sample was run using methanol instead of the sample. The radical scavenging activity was […]
using the following equation:
Inhibition%= (Ablank-Asample)/(Ablank)*100. […]

[11] = ABTS radical scavenging bioassay; details: dose needed to decrease the absorbance by 50%
Text: as §14, §15, §16
1.1.3.2. The ABTS bioassay
The antioxidant activity of the investigated compounds was assessed using 2,2’-azino-bis(3-ethylbenzothiazoline-6-sulphonic acid (ABTS) method. The radical cation derived from ABTS was prepared by the reaction of 60 mM ABTS solution with 0.3 M manganese dioxide solution in 0.1M phosphate buffer, pH 7. Then, the mixture was shaken, centrifuged, filtered, and the absorbance (Acontrol) of the resulting green-blue solution (ABTS radical solution) was measured at wavelength 734 nm. Then, […] of 1 mg/ml test compound in phosphate-buffered methanol was added. The absorbance (Atest) was measured. The reduction in color intensity was expressed as % inhibition. The % inhibition for each compound is calculated from the following equation
Inhibition% = (Acontrol-Asample)/(Acontrol)*100
Ascorbic acid (vitamin C) was used as a standard antioxidant (positive control). A blank sample was run without ABTS and using MeOH/phosphate buffer (1:1) instead of the sample. A negative control sample was run with MeOH/phosphate buffer (1:1) instead of a tested compound.

IC50 ([1]; MTT, HepG2 cells, 24 h incubation) [µM] | IC50 ([10]; dose needed to decrease the absorbance by 50%) [µM] | IC50 [11] [µM] | SMILES | IC50 [2] [µM] | IC50 ([1]; HepG2, 24 h) [µM] | IC50 [3] [µM] | S. aureus IA% (activity index) [4] [%] | C. Albicans IA% (activity index) [5] [%] | melting point [°C] | zone of inhibition at 20 µM [6] [mm] | zone of inhibition at 20 µM [7] [mm] | E. coli IA% (activity index) [8] [%] | zone of inhibition at 20 µM [9] [mm] | DPPH radical scavenging activity [10] [%]
4.5 ± 0.2 |  |  | COc1cccc2c1C(=O)c1c(O)c3c(c(O)c1C2=O)C[C@@](O)(C(=O)CO)C[C@@H]3O[C@H]1C[C@H](N)[C@H](O)[C@H](C)O1 [Adriamycin, reference compound] |  |  |  |  |  |  |  |  |  |  | 
 |  |  | COC(=O)c1cc([Se][Se]c2ccc(NC=O)c(C(=O)OC)c2)ccc1NC=O [Compound 7, dimethyl 5,5′-diselanediylbis(2-formamidobenzoate)] | 79 ± 4.2 | 83.7 ± 4.4 | 45.7 ± 2.7 | 14.3 | 16.7 | 195 to 196 | 3 | 4 |  |  | 
 |  |  | COC(=O)c1cc([Se][Se]c2ccc(NC(C)=O)c(C(=O)OC)c2)ccc1NC(C)=O [Compound 8, dimethyl 5,5′-diselanediylbis(2-acetamidobenzoate)] | > 100 | > 100 | > 100 |  |  | 186 to 187 |  |  |  |  | 
 |  |  | COC(=O)c1cc([Se][Se]c2ccc(NC(=O)CCl)c(C(=O)OC)c2)ccc1NC(=O)CCl [Compound 9, dimethyl 5,5′-diselanediylbis(2-(2-chloroacetamido) benzoate)] | > 100 | > 100 | > 100 |  |  | 150 to 152 |  |  |  |  | 
 |  |  | COC(=O)c1cc([Se][Se]c2ccc(NC(=O)COc3ccccc3)c(C(=O)OC)c2)ccc1NC(=O)COc1ccccc1 [Compound 10, dimethyl 5,5′-diselanediylbis(2-(2-phenoxyacetamido) benzoate)] | 53.5 ± 3 | 81.5 ± 4.2 | 38.2 ± 2.5 | 38.1 | 20.8 | 152 to 154 | 8 | 5 | 21.7 | 5 | 
 |  |  | COC(=O)c1cc([Se][Se]c2ccc(NC(=O)CCC(=O)O)c(C(=O)OC)c2)ccc1NC(=O)CCC(=O)O [Compound 11] | 55.1 ± 3.2 | 43.7 ± 2.6 | > 100 | 33.3 | 41.7 | 150 to 152 | 7 | 10 | 21.7 | 5 | 
 |  |  | COC(=O)c1cc([Se][Se]c2ccc(N3C(=O)CCC3=O)c(C(=O)OC)c2)ccc1N1C(=O)CCC1=O [Compound 12, dimethyl 5,5′-diselanediylbis(2-(2,5-dioxopyrrolidin-1-yl) benzoate] | > 100 | > 100 | > 100 |  |  | 100 |  |  |  |  | 
 |  |  | COC(=O)c1cc([Se][Se]c2ccc(NC(=O)/C=C\C(=O)O)c(C(=O)OC)c2)ccc1NC(=O)/C=C\C(=O)O [Compound 13, (2Z,2’Z)-4,4′-((diselanediylbis(2-(methoxycarbonyl)-4,1-phenylene))bis(azanediyl)) bis (4-oxobut-2-enoic acid)] | 76.2 ± 4 | 78.5 ± 3.9 | 47 ± 2.8 | 19.0 | 20.8 | 149.5 to 151 | 4 | 5 |  |  | 
 |  |  | COC(=O)c1cc([Se]Cc2ccccc2)ccc1N [Compound 15, methyl 2-amino-5-(benzylselanyl) benzoate] | 12.8 ± 0.9 | 6.48 ± 0.4 | 25.8 ± 1.8 | 85.7 | 91.7 | 78 | 18 | 22 | 73.9 | 17 | 89
 |  |  | COC(=O)c1cc([Se]CC(=O)Nc2ccccc2)ccc1N [Compound 16, methyl 2-amino-5-((2-oxo-2-(phenylamino)ethyl)selanyl) benzoate] | 50.8 ± 2.9 | 30.6 ± 2.4 | 71.9 ± 4.1 | 42.8 | 54.2 | 126 to 128.5 | 9 | 13 | 26.1 | 6 | 
 | 19.18 ± 0.13 | 28.16 ± 0.19 | O=C1O[C@H]([C@@H](O)CO)C(O)=C1O [Vitamin C, Ascorbic acid, reference compound] |  |  |  |  |  |  |  |  |  |  | 95
